# Measured values reported in paper PMC12703741, “Light-Activated Metal-Dependent Protein Degradation: A Heterobifunctional Ruthenium(II) Photosensitizer Targeting New Delhi Metallo-β-lactamase 1” (Journal of the American Chemical Society, 2025).
# Columns and labels:
# [1] = tested on: seven mammalian cell lines; conditions: panel of seven mammalian cell lines including HepG2
# [2] = Luminescence lifetime of the excited state; assay type: physicochemical; conditions: PBS
# Description: 1.2.6 Luminescence lifetime
# at room temperature with a Horiba Scientific FL-1065 (FluoroLog) using a pulse laser (486
# nm) as the excitation source.
# Lifetime of excited state (ns)
# E. coli empty [3] = conditions: 320 μM, 1 h
# Procedure: (§1) In parallel, a control set was incubated without compounds for 50 min, followed by incubation with 75 μM meropenem trihydrate for 10 min. Cells were then pelleted, washed, resuspended in water, lysed, and clarified before LC-MS analysis.
# (§2) 1.12 LC-MS accumulation assay
# (§3) 1.12.1 Bacterial Strains and Growth Conditions:
# (§4) Accumulation assay was performed two E. coli K-12 MG1655 strains transfected with pSU18 vector containing NDM-1 expression or an empty vector control. Cell growth was performed in Luria-Bertani (LB) broth (NaCl 10g/L, K2HPO4 6.3 g/L, KH2PO4 1.8 g/L, sodium citrate […]
# (§5) 1.12.2 Preparation of Accumulation Assay Samples for LC-MS Analysis:
# (§6) Assay was adapted from the work of Geddes et al. and Widya et al.9–11 E. coli MG1655 pSU18 NDM-1 and pSU18 Empty were grown from single colonies at 37 °C with aeration, while shaking at 180 rpm for 18 hours. The overnight suspensions were subcultured (1:100) in fresh LB and incubated to yield an OD600 of 0.55-0.60. The were harvested and pelleted at 3500 × g for 15 minutes at 4 °C. The pellets were washed with Meuller -Hinton II (MHII) broth and pelleted again under the same conditions. The pellets were resuspended in a n adjusted volume of fresh MHII to achieve an OD 600 ≈ 10.0. Shielded from ambient light, cells were incubated with 320 μM of metal complex for 1 hour while shaking at 180 rpm. Separately, another set of cells was incubated under identical conditions without any added metal complex. Cells […]
# (§7) incubated with metal complex were maintained incubating under the same conditions for an additional 10 minutes, while the second set of cells was incubated with 75 μM of meropenem trihydrate for 10 minutes. After treatment, 10 μL of each cell suspension was taken and dilution 1:10 PBSA for OD600 viability analysis. A 150 μL aliquot of each cell suspension was layered onto 150 μL of cold silicone oil mixture (1:9, v/v AR20:High temperature silicone oil) and centrifuged at 3500 × g for 1 hour at 4 °C. The aqu eous and oil supernatant were carefully aspirated to isolate the cell pellets, which were resuspended in 50 μL of water and transferred to a fresh microplate. For lysis, a 1:1 (v/v) mixture of acetonitrile and methanol was added to each sample, and the sam ples were freeze thawed at -80 °C for approximately 18 hours.
# (§8) Thawed samples were clarified by two rounds of centrifugation at 3500 × g for 1 hour at 4 °C, […]
# (§9) External calibration curves were prepared by mixing compound at increasing concentration with extracted cell lysate (prepared in parallel to analyte containing samples) in concentrations […]
# (§10) nM were also prepared to assess quantitative accuracy. Samples were submitted to LCMS analysis as biological triplicate using a single calibration curve. […]
# (§11) was spiked into each calibration and analyte sampl e as an internal standard.
# E. coli NDM-1 = conditions: 320 μM, 1 h
# Procedure: as §1, §2, §3, §4, §5, §6, §7, §8, §9, §10, §11
# E. coli empty [4] = conditions: dark and light samples equivalent
compound,measurement,setting,value
"F[P-](F)(F)(F)(F)F.F[P-](F)(F)(F)(F)F.[Ru+2].c1ccc(-c2ccccn2)nc1.c1ccc(-c2ccccn2)nc1.c1ccc(-n2cnc3c4cccnc4c4ncccc4c32)cc1 [Ru2, [Ru(2,2'-bipyridine)2(1-phenyl-imidazo[4,5,f][1,10]phenanthroline)](PF6)2]",Cytotoxicity (no cytotoxicity up to),[1],> 50 µM
same,Luminescence lifetime of excited state,[2],463 ns
same,Accumulation,E. coli empty [3],405 nM/OD600
same,Accumulation,E. coli NDM-1,494 nM/OD600
same,MIC,E. coli empty [4],>160 µM
